Consider one molecule from patent US12552790B2, “Positive modulators of the muscarinic acetylcholine receptor M4” (Vanderbilt University, priority 2023, dated 2026).

Data set [1] can be described thus: Rat fraction unbound in brain. The format is in vitro ADME. Conditions: read-out: Rat Fu (brain). From the text:
(§1) Compounds may be tested in in vitro assays to investigate both metabolism and pharmacokinetics. These assays may be performed according to known methods as generally described in the following references: Conde-Ceide et al. ACS Med. Chem. Lett. 2015, 6, 716-720; Morris et al. J. Med. Chem. 2014, 57, 10192-10197; and Bubser et al. ACS Chem. Neurosci. 2014, 5, 920-942.

Another data set concerns the target T1, P450 1A2 (Homo sapiens, UniProt P05177).
T1 sequence (P05177 1-516): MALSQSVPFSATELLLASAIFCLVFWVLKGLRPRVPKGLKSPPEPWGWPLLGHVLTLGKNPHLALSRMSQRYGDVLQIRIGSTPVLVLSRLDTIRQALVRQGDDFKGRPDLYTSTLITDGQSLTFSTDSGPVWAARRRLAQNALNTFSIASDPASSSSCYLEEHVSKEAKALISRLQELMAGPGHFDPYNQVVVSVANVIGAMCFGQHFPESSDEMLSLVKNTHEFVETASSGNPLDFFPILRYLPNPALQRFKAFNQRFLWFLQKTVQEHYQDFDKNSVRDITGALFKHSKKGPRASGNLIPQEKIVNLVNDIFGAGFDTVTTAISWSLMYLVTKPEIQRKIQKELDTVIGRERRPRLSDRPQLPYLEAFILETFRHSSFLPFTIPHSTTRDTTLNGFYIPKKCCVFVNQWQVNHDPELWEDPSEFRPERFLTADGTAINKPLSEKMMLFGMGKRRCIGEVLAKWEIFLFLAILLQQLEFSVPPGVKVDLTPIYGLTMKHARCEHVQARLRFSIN
Nature of the data set: P450 1A2 inhibition. It is filed as in vitro ADME.
Excerpt: as §1

Data set [2] can be described thus: Dog fraction unbound in plasma. The format is in vitro ADME. Conditions: read-out: Dog Fu (plasma).
Excerpt: as §1

The next data set in a line: Rat intrinsic clearance. The format is in vitro ADME.
Excerpt: as §1

Data set [3] in a line: Human fraction unbound in plasma. It is filed as in vitro ADME. Conditions: read-out: Human Fu (plasma).
Excerpt: as §1

Data set [4] concerns amphetamine-induced hyperlocomotion in male Sprague-Dawley rats. Nature of the data set: Amphetamine-induced hyperlocomotion in rats. Conditions: rat; for percent reversal of amphetamine-induced hyperlocomotion: amphetamine 0.75 mg/kg s.c. It is filed as in vivo. On the procedure: Drugs: d-Amphetamine hemisulfate was obtained from Sigma (St. Louis, MO). Salt-correction was used to determine the correct amount of the d-amphetamine hemisulfate form in milligrams to add to sterile water in order to yield a 0.75 mg/mL solution, which would be dosed at 1 mL/kg body weight of each animal. […] The solutions were formulated so that animals were injected with a volume equal to 10 mL/kg body weight for all compounds. The appropriate amount according to the dosage was mixed in 10% Tween 80 (Sigma) in sterile water. The mixtures were then vortexed and stored in a 39° C. sonication bath for 1 hour, until in a solution or microsuspension (depending on dose).
Animals: Male Sprague-Dawley rats weighing 239-300 grams and averaging 265 g (Harlan, Inc., Indianapolis, IN) were used. They were housed in the animal care facility certified by the American Association for the Accreditation of Laboratory Animal Care (AALAC) under a 12-hour light/dark cycle (lights on: 6 a.m.; lights off: 6 p.m.) and had free access to food and water. The animals used in this experiment were food-deprived the evening before experimentation for oral dosing of compound/vehicle. The experimental protocols performed during the light cycle were approved by the Institutional Animals Care and Use Committee of Vanderbilt University and conformed to the guidelines established by the National Research Council Guide for the Care and Use of Laboratory Animals.
Amphetamine-induced Hyperlocomotion: Male Harlan Sprague Dawley rats were habituated in Smart Open Field locomotor activity test chambers (Hamilton-Kinder, San Diego, CA) with 16×16 photo beams to automatically record locomotor activity. […] They were monitored for an additional 30 minutes and then injected subcutaneously with vehicle or 0.75 mg/kg amphetamine. Animals were then monitored for an additional 60 minutes, for a total of 120 minutes. Data were expressed as changes in ambulation defined as total number of beam breaks per 5 minute interval. Terminal brain and plasma samples were collected at the end of the study for pharmacokinetic analysis.
Data Analysis: Behavioral data were analyzed using a two-way ANOVA with main effects of treatment and time. Post hoc analysis was performed using a Dunnett's t-test with all treatment groups compared to the Vehicle/amphetamine group (VAMP) group using GraphPad Prism V.5.04 (GraphPad Software, San Diego, CA). Data were graphed using GraphPad Prism V.5.04 (GraphPad Software, San Diego, CA). A probability of p≤0.05 was taken as the level of statistical significance. In addition, the total number of beam breaks from the amphetamine administration (65 min) to the end of the study (120 min) was calculated and graphed. Percent Reversal was calculated as follows using Microsoft Excel: In each animal, total ambulation from t=65 to t=120 was summed. The mean of each sum was calculated in the VAMP group. Then, for each animal, Percent Reversal was calculated with the following formula: Percent Reversal=100−{[(total ambulation in each animal from t=65 to t=120)/(mean of each sum from t=65 to t=120 in VAMP group)]*100}. The mean Percent Reversal, as well as the standard error, was calculated for each dose group using GraphPad Prism V5.04.

Data set [5] is described as follows: In vivo pharmacokinetic study in rat.
Data set [6] has as its system 68 primary molecular targets. Description: Eurofins LeadProfilingScreen (binding). Conditions: 10 μM (binding), 68 targets. The source says: The screen includes 68 primary molecular targets, including several CNS targets recommended by the EMEA to evaluate drug dependence potential.

A value given as a limit tells only on which side of the number the result lay.

In general, IC50 refers to the concentration at which inhibition is half-maximal. As a reminder, the CLint scaled is the capacity of the preparation to metabolise the compound, expressed as a volume cleared per time. Read a low CLint scaled as greater metabolic stability. For orientation: Kp means tissue or fluid exposure divided by exposure in the circulation. Turning to `[2H]C1([2H])Oc2ccc(OC3CCN(c4nc5c(cc4C)C(=O)NC5)CC3)cc2OC1([2H])[2H]` [Compound 3, 2-(4-((2,3-dihydrobenzo[b][1,4]dioxin-6-yl-2,2,3,3-d4)oxy)piperidin-1-yl)-3-methyl-6,7-dihydro-5H-pyrrolo[3,4-b]pyridin-5-one], the fraction unbound in data set [1] was 0.015; in data set [2], 0.042; in data set [3] it was 0.022. In addition, the half-inhibitory concentration (IC50) at P450 1A2 is above 100 µM. Moreover, in “Rat intrinsic clearance”, the CLint scaled amounted to 90 mL/min/kg. The “percent reversal of amphetamine-induced hyperlocomotion” value in data set [4] (1 mg/kg oral gavage) was 27.5%; in data set [4] (1.8 mg/kg oral gavage) it was 40.1%; in data set [4] (3 mg/kg oral gavage) it was 59.1%; in data set [4] (5.6 mg/kg oral gavage) it was 60.9%. The “reversal of amphetamine-induced hyperlocomotion (in words)” value in data set [4] (systemic administration) was “significant and sustained reversal”. The “Rat oral F” value in data set [5] (3 mg/kg oral) is given as above 100%. Further, the concentration ratio (Kp) in data set [5] (brain, read-out: Rat brain: plasma Kp) is 1.2. Besides, the Kp uu in data set [5] (brain, unbound, read-out: Rat brain: plasma Kp, uu) stood at 0.7. Besides, in data set [5] (plasma, read-out: Rat CLp), the clearance stood at 16.9 mL/min/kg. Further, the half-life in data set [5] (plasma, read-out: Rat Elim. t1/2 (converted)) was 1.4 h. The Vd in data set [5] (plasma, read-out: Rat Vss) was 1.6 L/kg. In addition, the “inhibition of each target in the LeadProfilingScreen” value in data set [6] is on record as below 50%.
